Measurements taken from patent US4839344A, “Polypeptide compounds having growth hormone releasing activity” (Eastman Kodak Company, priority 1987, dated 1989).
Where “and” joins values, the source holds several entries; their conditions need not be identical. Identical values can stand only once. Square brackets hold non-standard residues; d marks the D form. Ends that are not written are not given here.

Tested on: growth hormone (GH) release
Assay: In Vivo GH Release in Rats (serum GH by RIA)
Parameters: species or system immature female Sprague-Dawley rats
Settings: rat serum, i.v., mean ± SEM, six rats
[1] = total dose 10 μg, sacrificed 10 minutes after final injection

Substance: AC[dW]AW[dF]KC-NH2 (cysteine pairing not given here) [Compound 9308]
- GH Released by Compound in Column A [1]: 10 ± 1 ng/mL

Substance: CAH[dW]AW[dF]KC-NH2 (cysteine pairing not given here) [Compound 8758]
- GH Released by Compound in Column A [1]: 37 ± 8 ng/mL and 26 ± 9 ng/mL
- GH Released by Compound in Column A (total dose 20 (ng as printed), sacrificed 30 minutes after final injection): 52 ± 7 ng/mL
